Experimental data from ChEMBL document CHEMBL3621069 (Bioorg Med Chem Lett, 2015).
pIC50: −log10 of the molar value. Values belong to the compound of their own block, whether it stands above or below them.

Experiments:
[1] = molecular target: T1, Tyrosine-protein kinase JAK3 (Homo sapiens, UniProt P52333); experiment: Inhibition of JAK3 (unknown origin) pre-incubated for 30 mins at room temperature before substrate addition and measured 1 hr after substrate addition by cell free kinase assay
T1 sequence (P52333 whole entry): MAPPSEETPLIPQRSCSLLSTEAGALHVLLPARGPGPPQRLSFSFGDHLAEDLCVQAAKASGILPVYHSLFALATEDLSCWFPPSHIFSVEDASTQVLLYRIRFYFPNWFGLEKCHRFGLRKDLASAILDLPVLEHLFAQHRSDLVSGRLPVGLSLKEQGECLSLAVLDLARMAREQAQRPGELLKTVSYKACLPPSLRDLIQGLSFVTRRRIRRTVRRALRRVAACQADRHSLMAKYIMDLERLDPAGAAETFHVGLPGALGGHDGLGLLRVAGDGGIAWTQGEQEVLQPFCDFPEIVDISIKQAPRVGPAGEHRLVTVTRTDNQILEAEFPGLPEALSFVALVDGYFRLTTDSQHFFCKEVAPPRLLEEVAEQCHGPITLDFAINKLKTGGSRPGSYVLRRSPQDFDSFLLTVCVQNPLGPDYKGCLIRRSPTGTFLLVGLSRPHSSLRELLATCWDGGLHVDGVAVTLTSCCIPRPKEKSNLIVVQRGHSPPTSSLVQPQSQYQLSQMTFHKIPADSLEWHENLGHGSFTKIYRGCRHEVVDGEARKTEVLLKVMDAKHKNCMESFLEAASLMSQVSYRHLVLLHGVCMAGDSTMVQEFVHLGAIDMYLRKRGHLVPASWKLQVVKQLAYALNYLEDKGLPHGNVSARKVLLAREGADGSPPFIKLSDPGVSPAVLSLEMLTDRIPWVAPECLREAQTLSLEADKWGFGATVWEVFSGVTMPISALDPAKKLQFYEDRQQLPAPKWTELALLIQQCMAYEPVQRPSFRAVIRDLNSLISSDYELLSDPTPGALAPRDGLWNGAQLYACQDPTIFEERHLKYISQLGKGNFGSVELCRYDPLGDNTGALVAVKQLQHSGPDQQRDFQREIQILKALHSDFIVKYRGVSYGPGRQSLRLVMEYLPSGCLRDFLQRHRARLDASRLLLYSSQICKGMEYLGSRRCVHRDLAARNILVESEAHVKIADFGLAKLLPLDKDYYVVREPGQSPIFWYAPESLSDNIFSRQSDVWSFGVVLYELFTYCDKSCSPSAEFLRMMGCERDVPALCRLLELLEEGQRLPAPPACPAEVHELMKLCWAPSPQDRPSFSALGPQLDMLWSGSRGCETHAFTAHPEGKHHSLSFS

[2] = molecular target: Proto-oncogene tyrosine-protein kinase receptor Ret (Homo sapiens, UniProt P07949); experiment: Inhibition of human RET pre-incubated for 30 mins at room temperature before substrate addition and measured 1 hr after substrate addition by cell free kinase assay
[3] = molecular target: Mitogen-activated protein kinase kinase kinase 9 (Homo sapiens) (UniProt P80192); experiment: Inhibition of human MLK1 at 0.01 uM
[4] = molecular target: Voltage-gated inwardly rectifying potassium channel KCNH2 (Homo sapiens, UniProt Q12809); experiment: Inhibition of human ERG by manual patch clamp assay
Salmonella typhimurium [5] = experiment: Genotoxicity in Salmonella typhimurium TA98 at 5000 µg/plate in absence of liver S9 fraction by Ames test; type: toxicity, organism-based; conditions: salmonella enterica subsp. enterica serovar typhimurium
Salmonella typhimurium [6] = experiment: Mutagenicity in Salmonella typhimurium TA1535 at 5000 µg/plate in presence of liver S9 fraction by Ames test; type: toxicity, organism-based; conditions: salmonella enterica subsp. enterica serovar typhimurium
[7] = Clearance in dog at 5 mg/kg, iv; type: ADME, organism-based, Canis lupus familiaris; conditions: in vivo
[8] = AUClast in dog at 5 mg/kg, iv; type: ADME, organism-based, Canis lupus familiaris; set-up: dose 5 mg/kg, time 0 - last, route intravenous; conditions: in vivo
[9] = AUClast in dog at 10 mg/kg, po; type: ADME, organism-based, Canis lupus familiaris; set-up: dose 10 mg/kg, route oral, time 0 - last; conditions: in vivo
[10] = Oral bioavailability in dog at 10 mg/kg; type: ADME, organism-based, Canis lupus familiaris; conditions: in vivo
Mus musculus = experiment: Anti-arthritic activity in DBA1/J mouse model of collagen-induced arthritis assessed as reduction in arthritis clinical scores at 10 mg/kg, po administered orally continued once daily and twice daily through study; type: functional
[11] = system: Tyrosine-protein kinase ABL1 (Homo sapiens), P00519 [Q252H]; experiment: Inhibition of human Abl Q252H mutant at 0.1 uM
[12] = system: Epidermal growth factor receptor (Homo sapiens), P00533 [T790M]; experiment: Inhibition of human EGFR T790M mutant at 0.1 uM; type: protein assay
Sequence of Epidermal growth factor receptor (Homo sapiens), P00533 [T790M] (P00533 whole entry T790M): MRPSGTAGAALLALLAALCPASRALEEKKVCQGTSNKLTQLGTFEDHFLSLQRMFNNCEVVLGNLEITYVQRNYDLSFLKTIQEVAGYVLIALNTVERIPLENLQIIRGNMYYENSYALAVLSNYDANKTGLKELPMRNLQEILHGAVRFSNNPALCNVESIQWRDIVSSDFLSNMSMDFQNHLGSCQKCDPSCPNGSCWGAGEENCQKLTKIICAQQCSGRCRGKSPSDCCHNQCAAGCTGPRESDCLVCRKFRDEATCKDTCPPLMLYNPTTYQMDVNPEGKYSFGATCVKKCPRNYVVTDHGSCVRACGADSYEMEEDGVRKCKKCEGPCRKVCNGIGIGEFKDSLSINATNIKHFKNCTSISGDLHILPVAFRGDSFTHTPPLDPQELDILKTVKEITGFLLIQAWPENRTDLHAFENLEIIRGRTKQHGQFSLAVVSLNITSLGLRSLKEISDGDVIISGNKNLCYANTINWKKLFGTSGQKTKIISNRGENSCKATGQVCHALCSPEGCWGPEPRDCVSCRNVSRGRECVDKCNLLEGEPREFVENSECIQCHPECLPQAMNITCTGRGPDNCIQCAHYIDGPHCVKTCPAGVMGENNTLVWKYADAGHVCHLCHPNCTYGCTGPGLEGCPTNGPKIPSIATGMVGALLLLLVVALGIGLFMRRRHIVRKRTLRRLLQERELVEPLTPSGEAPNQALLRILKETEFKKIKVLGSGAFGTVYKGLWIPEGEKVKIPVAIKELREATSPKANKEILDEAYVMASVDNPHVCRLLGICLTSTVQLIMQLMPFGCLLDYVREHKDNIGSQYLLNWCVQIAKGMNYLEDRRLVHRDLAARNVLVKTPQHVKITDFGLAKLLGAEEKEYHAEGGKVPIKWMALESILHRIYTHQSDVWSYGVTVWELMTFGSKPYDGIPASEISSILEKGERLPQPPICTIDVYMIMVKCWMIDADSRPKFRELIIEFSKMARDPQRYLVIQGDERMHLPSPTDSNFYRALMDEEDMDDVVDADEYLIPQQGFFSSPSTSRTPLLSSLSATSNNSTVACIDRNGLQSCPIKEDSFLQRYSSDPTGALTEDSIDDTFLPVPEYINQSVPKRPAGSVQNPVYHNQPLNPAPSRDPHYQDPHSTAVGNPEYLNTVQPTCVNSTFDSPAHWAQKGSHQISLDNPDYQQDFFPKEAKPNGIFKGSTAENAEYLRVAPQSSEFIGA

[13] = system: Epidermal growth factor receptor (Homo sapiens), P00533 [L858R,T790M]; experiment: Inhibition of human EGFR T790M/L858R mutant at 0.1 uM; type: protein assay
[14] = system: Receptor-type tyrosine-protein kinase FLT3 (Homo sapiens), P36888 [D835Y]; experiment: Inhibition of human Flt3 D835Y mutant at 0.1 uM
[15] = molecular target: Tyrosine-protein kinase Fgr (Homo sapiens) (UniProt P09769); experiment: Inhibition of human Fgr at 0.1 uM
[16] = molecular target: Tyrosine-protein kinase Fyn (Homo sapiens) (UniProt P06241); experiment: Inhibition of human Fyn (unknown origin) at 0.1 uM
Sequence of Tyrosine-protein kinase Fyn (Homo sapiens) (P06241 2-537 limits assumed): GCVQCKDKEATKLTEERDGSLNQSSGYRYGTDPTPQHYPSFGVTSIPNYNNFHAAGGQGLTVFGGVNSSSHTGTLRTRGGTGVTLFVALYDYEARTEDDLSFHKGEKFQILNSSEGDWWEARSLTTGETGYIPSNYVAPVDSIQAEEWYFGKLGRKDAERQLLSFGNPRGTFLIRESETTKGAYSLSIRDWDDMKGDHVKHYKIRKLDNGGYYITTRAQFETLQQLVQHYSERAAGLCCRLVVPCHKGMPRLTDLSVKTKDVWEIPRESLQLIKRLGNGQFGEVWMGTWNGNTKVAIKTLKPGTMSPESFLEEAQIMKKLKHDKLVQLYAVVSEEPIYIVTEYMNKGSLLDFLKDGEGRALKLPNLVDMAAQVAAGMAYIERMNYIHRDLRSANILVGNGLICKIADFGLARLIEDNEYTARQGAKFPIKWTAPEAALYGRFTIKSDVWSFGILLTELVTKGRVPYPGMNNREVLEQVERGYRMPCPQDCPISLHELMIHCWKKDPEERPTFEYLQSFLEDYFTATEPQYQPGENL

[17] = molecular target: Tyrosine-protein kinase Lck (Homo sapiens) (UniProt P06239); experiment: Inhibition of human Lck at 0.1 uM
Sequence of Tyrosine-protein kinase Lck (Homo sapiens) (P06239 2-509 limits assumed): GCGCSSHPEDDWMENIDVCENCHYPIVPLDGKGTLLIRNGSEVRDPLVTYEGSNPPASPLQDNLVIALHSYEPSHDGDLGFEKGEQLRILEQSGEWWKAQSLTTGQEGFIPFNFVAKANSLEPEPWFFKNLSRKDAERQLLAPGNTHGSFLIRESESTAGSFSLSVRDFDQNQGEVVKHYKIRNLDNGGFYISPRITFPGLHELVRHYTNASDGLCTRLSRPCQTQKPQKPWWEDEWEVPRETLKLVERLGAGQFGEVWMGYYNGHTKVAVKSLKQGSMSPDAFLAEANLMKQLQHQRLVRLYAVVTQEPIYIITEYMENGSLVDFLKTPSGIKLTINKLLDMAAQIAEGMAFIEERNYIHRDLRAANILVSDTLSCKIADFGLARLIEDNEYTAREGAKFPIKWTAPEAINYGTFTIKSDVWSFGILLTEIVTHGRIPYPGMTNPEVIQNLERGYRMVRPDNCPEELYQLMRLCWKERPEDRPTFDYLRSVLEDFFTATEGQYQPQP

[18] = molecular target: Tyrosine-protein kinase Lyn (Homo sapiens) (UniProt P07948); experiment: Inhibition of human Lyn at 0.1 uM
[19] = molecular target: Tyrosine-protein kinase Yes (Homo sapiens) (UniProt P07947); experiment: Inhibition of human Yes at 0.1 uM
[20] = molecular target: Proto-oncogene tyrosine-protein kinase Src (Homo sapiens) (UniProt P12931); experiment: Inhibition of human Src (1 to 530 residues) at 0.1 uM
Sequence of Proto-oncogene tyrosine-protein kinase Src (Homo sapiens) (P12931 2-536 limits assumed): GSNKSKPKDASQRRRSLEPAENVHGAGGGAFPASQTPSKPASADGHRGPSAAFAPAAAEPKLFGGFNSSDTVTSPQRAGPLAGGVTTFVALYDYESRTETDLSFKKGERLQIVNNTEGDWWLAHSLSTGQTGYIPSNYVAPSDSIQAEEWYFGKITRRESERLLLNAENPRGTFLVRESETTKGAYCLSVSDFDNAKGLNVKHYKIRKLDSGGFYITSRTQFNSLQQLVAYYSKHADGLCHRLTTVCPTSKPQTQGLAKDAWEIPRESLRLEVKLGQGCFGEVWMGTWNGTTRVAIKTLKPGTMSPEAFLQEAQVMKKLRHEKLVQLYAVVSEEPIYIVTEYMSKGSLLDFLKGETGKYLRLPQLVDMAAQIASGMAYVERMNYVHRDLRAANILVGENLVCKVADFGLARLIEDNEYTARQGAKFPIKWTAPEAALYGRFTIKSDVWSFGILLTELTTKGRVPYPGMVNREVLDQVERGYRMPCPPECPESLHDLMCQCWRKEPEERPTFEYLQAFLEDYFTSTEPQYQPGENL

[21] = system: Proto-oncogene tyrosine-protein kinase Src (Homo sapiens), P12931 [T341M]; experiment: Inhibition of human Src T341M mutant at 0.1 uM
[22] = system: Tyrosine-protein kinase ABL1 (Homo sapiens), P00519 [Q252H]; experiment: Inhibition of human Abl Q252H mutant at 0.01 uM
[23] = system: Receptor-type tyrosine-protein kinase FLT3 (Homo sapiens), P36888 [D835Y]; experiment: Inhibition of human Flt3 D835Y mutant at 0.01 uM
[24] = system: Proto-oncogene tyrosine-protein kinase receptor Ret (Homo sapiens), P07949 [V804L]; conditions: 0.1 uM
Sequence of Proto-oncogene tyrosine-protein kinase receptor Ret (Homo sapiens), P07949 [V804L] (P07949 whole entry V804L): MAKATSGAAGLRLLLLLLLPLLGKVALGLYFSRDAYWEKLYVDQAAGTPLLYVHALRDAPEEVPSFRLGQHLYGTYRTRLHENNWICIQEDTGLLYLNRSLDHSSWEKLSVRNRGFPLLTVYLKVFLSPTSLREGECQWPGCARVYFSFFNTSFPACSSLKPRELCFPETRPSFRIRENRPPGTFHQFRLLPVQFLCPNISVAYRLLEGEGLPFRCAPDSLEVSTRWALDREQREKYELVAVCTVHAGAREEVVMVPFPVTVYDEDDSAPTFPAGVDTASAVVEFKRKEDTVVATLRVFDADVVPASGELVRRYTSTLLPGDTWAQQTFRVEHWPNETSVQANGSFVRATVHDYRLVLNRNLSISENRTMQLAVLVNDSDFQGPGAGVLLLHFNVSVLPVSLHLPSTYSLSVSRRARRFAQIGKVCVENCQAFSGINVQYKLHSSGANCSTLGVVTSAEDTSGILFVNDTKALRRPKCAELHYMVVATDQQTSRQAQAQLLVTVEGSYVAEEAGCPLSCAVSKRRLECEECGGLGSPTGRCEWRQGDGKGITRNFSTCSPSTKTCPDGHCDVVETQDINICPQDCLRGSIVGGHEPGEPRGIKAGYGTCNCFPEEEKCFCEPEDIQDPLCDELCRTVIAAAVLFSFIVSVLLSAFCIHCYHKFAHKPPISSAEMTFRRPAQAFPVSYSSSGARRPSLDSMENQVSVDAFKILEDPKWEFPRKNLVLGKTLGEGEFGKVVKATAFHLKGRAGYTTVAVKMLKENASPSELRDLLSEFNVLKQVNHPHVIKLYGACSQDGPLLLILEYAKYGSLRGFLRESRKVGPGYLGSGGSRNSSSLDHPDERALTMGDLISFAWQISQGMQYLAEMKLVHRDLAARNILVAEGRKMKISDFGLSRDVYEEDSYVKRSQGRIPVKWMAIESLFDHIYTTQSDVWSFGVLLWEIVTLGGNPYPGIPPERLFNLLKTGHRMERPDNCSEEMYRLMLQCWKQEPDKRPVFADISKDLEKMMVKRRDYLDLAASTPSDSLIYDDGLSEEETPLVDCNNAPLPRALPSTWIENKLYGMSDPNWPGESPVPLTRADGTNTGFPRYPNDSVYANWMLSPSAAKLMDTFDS
Description: Inhibition of human Ret V804L mutant at 0.1 uM

[25] = system: Proto-oncogene tyrosine-protein kinase receptor Ret (Homo sapiens), P07949 [V804M]; conditions: 0.1 uM
Sequence of Proto-oncogene tyrosine-protein kinase receptor Ret (Homo sapiens), P07949 [V804M] (P07949 whole entry V804M): as the sequence (P07949 whole entry V804L) above, with L804M counted along it
Description: Inhibition of human Ret V804M mutant at 0.1 uM

[26] = system: Proto-oncogene tyrosine-protein kinase receptor Ret (Homo sapiens), P07949 [V804M]; conditions: 0.01 uM
Description: Inhibition of human Ret V804M mutant at 0.01 uM

[27] = molecular target: Tyrosine-protein kinase SYK (Homo sapiens, UniProt P43405); experiment: Inhibition of purified full-length human SYK pre-incubated for 30 mins at room temperature before Ulight-TK peptide substrate addition and measured 1 hr after substrate addition by cell free kinase assay
[28] = molecular target: Vascular endothelial growth factor receptor 2 (Homo sapiens, UniProt P35968); experiment: Inhibition of KDR (unknown origin) pre-incubated for 30 mins at room temperature before substrate addition and measured 1 hr after substrate addition by cell free kinase assay

pIC50 [1]: 7.11 | pIC50 [2]: 7.17 | inhibition [3]: 44% | clearance [7]: 40.4 mL/min/kg | AUC(0-t) [8]: 2090 ng·h/mL | AUC(0-t) [9]: 1940 ng·h/mL | bioavailability [10]: 46.4% | inhibition [11]: > 70% | inhibition [12]: > 70% | inhibition [13]: > 70% | inhibition [14]: > 70% | inhibition [15]: < 25% | inhibition [16]: < 25% | inhibition [17]: < 25% | inhibition [18]: < 25% | inhibition [19]: < 25% | inhibition [20]: < 25% | inhibition [21]: < 25% | inhibition [22]: < 50% | inhibition [23]: < 50% | inhibition [24]: > 70% | inhibition [25]: > 70% | inhibition [26]: < 50%
SMILES: Cc1nn(-c2ccnc(Nc3ccc4c(c3)c(Cl)c(C)n4C)n2)cc1CN1CC(O)C1
pIC50 [4]: 4.62 | Activity (Salmonella typhimurium [5]): Non-toxic | Activity (Salmonella typhimurium [6]): Non-toxic | inhibition in vivo at 10 mg/kg (Mus musculus): 30%

pIC50 [27]: 8.77 | pIC50 [1]: 6.38 | pIC50 [28]: 6.19
SMILES: Cc1nn(-c2ccnc(Nc3ccc4c(c3)c(C)c(C)n4C)n2)cc1CN1CC(O)C1
Activity (Salmonella typhimurium [5]): Non-toxic | Activity (Salmonella typhimurium [6]): Non-toxic
